Bridge positions count the residues as written; N and C are the ends. Ends that are not written are not given here.
System: patients with chronic idiopathic constipation (CIC)
Assay: Second phase 3 CIC trial: change from baseline in stool consistency (BSFS)
Type: in vivo, human
[1] = 3 mg, Week 7, All Randomized (includes Duplicate Patients)
[2] = 3 mg, Week 7, ITT Population-Excluding Duplicate Patients
[3] = 3 mg, Week 8, All Randomized (includes Duplicate Patients)
[4] = 3 mg, Week 8, ITT Population-Excluding Duplicate Patients
[5] = 3 mg, Week 9, All Randomized (includes Duplicate Patients)
[6] = 3 mg, Week 9, ITT Population-Excluding Duplicate Patients
[7] = 3 mg, Week 10, All Randomized (includes Duplicate Patients)
[8] = 3 mg, Week 10, ITT Population-Excluding Duplicate Patients
[9] = 3 mg, Week 11, All Randomized (includes Duplicate Patients)
[10] = 3 mg, Week 11, ITT Population-Excluding Duplicate Patients
[11] = 3 mg, Week 12, All Randomized (includes Duplicate Patients)
[12] = 3 mg, Week 12, ITT Population-Excluding Duplicate Patients
[13] = 3 mg, overall average estimate across the 12-week treatment period, All Randomized (includes Duplicate Patients)
[14] = 3 mg, overall average estimate across the 12-week treatment period, ITT Population
[15] = 3 mg, overall average estimate across the 12-week treatment period, ITT Population-Excluding Duplicate Patients
[16] = 6 mg, Post-Treatment Week 13, All Randomized (includes Duplicate Patients)
[17] = 6 mg, Post-Treatment Week 13, ITT Population
[18] = 6 mg, Post-Treatment Week 13, ITT Population-Excluding Duplicate Patients
[19] = 6 mg, Post-Treatment Week 14, All Randomized (includes Duplicate Patients)
[20] = 6 mg, Post-Treatment Week 14, ITT Population

“Asn^1-Asp^2-Glu^3-Cys^4-Glu^5-Leu^6-Cys^7-Val^8-Asn^9-Val^10-Ala^11-Cys^12-Thr^13-Gly^14-Cys^15-Leu^16 (NDECELCVNVACTGCL; disulfide 4-12, 7-15) [Plecanatide, uroguanylin analogue, guanylate cyclase-C agonist; (C4:C12, C7:C15) bicycle peptide]” was tested, and the “Change from Baseline in Stool Consistency, Difference from Placebo” value (shortened to “Change from Baseline … Difference from Placebo”) [1] was 0.60, the “Change from Baseline in Stool Consistency, LS Mean (SE)” value (“Change from Baseline … (SE)” below) [1] was 1.46 (0.072) and the “Change from Baseline … Difference from Placebo” value (3 mg, Week 7, ITT Population) was 0.60. For the same substance, the “Change from Baseline … (SE)” value (3 mg, Week 7, ITT Population) was 1.49 (0.074), the “Change from Baseline in Stool Consistency, Mean (SD)” value (“Change from Baseline … (SD)” below) (3 mg, Week 7, ITT Population) was 1.58 (1.447) and the “Change from Baseline … Difference from Placebo” value [2] was 0.61. The “Change from Baseline … (SE)” value [2] was 1.50 (0.075), the “Change from Baseline … (SD)” value [2] was 1.60 (1.452) and the “Change from Baseline … Difference from Placebo” value [3] was 0.67. For the same substance, the “Change from Baseline … (SE)” value [3] was 1.58 (0.072), the “Change from Baseline … Difference from Placebo” value (3 mg, Week 8, ITT Population) was 0.66 and the “Change from Baseline … (SE)” value (3 mg, Week 8, ITT Population) was 1.60 (0.075). For the same substance, the “Change from Baseline … (SD)” value (3 mg, Week 8, ITT Population) was 1.71 (1.496), the “Change from Baseline … Difference from Placebo” value [4] was 0.67 and the “Change from Baseline … (SE)” value [4] was 1.60 (0.075). The “Change from Baseline … (SD)” value [4] was 1.71 (1.500), the “Change from Baseline … Difference from Placebo” value [5] was 0.68 and the “Change from Baseline … (SE)” value [5] was 1.55 (0.073). For the same substance, the “Change from Baseline … Difference from Placebo” value (3 mg, Week 9, ITT Population) was 0.68, the “Change from Baseline … (SE)” value (3 mg, Week 9, ITT Population) was 1.57 (0.075) and the “Change from Baseline … (SD)” value (3 mg, Week 9, ITT Population) was 1.68 (1.468). For the same substance, the “Change from Baseline … Difference from Placebo” value [6] was 0.66, the “Change from Baseline … (SE)” value [6] was 1.57 (0.076) and the “Change from Baseline … (SD)” value [6] was 1.68 (1.468). For the same substance, the “Change from Baseline … Difference from Placebo” value [7] was 0.62, the “Change from Baseline … (SE)” value [7] was 1.52 (0.073) and the “Change from Baseline … Difference from Placebo” value (3 mg, Week 10, ITT Population) was 0.61. The “Change from Baseline … (SE)” value (3 mg, Week 10, ITT Population) was 1.54 (0.075), the “Change from Baseline … (SD)” value (3 mg, Week 10, ITT Population) was 1.65 (1.539) and the “Change from Baseline … Difference from Placebo” value [8] was 0.61. For the same substance, the “Change from Baseline … (SE)” value [8] was 1.54 (0.076), the “Change from Baseline … (SD)” value [8] was 1.65 (1.548) and the “Change from Baseline … Difference from Placebo” value [9] was 0.55. The “Change from Baseline … (SE)” value [9] was 1.48 (0.073), the “Change from Baseline … Difference from Placebo” value (3 mg, Week 11, ITT Population) was 0.54 and the “Change from Baseline … (SE)” value (3 mg, Week 11, ITT Population) was 1.50 (0.075). For the same substance, the “Change from Baseline … (SD)” value (3 mg, Week 11, ITT Population) was 1.58 (1.598), the “Change from Baseline … Difference from Placebo” value [10] was 0.54 and the “Change from Baseline … (SE)” value [10] was 1.51 (0.076). For the same substance, the “Change from Baseline … (SD)” value [10] was 1.59 (1.595), the “Change from Baseline … Difference from Placebo” value [11] was 0.57 and the “Change from Baseline … (SE)” value [11] was 1.57 (0.073). The “Change from Baseline … Difference from Placebo” value (3 mg, Week 12, ITT Population) was 0.58, the “Change from Baseline … (SE)” value (3 mg, Week 12, ITT Population) was 1.60 (0.075) and the “Change from Baseline … (SD)” value (3 mg, Week 12, ITT Population) was 1.69 (1.480). The “Change from Baseline … Difference from Placebo” value [12] was 0.58, the “Change from Baseline … (SE)” value [12] was 1.61 (0.076) and the “Change from Baseline … (SD)” value [12] was 1.70 (1.476). The “Change from Baseline … Difference from Placebo” value [13] was 0.63, the “Change from Baseline … (SE)” value [13] was 1.48 (0.058) and the “Change from Baseline … Difference from Placebo” value [14] was 0.62. The “Change from Baseline … (SE)” value [14] was 1.49 (0.060), the “Change from Baseline … Difference from Placebo” value [15] was 0.62 and the “Change from Baseline … (SE)” value [15] was 1.50 (0.061). The “Change from Baseline … Difference from Placebo” value [16] was 0.09, the “Change from Baseline … (SE)” value [16] was 1.08 (0.070) and the “Change from Baseline … (SD)” value [16] was 1.03 (1.408). For the same substance, the “Change from Baseline … Difference from Placebo” value [17] was 0.09, the “Change from Baseline … (SE)” value [17] was 1.08 (0.071) and the “Change from Baseline … (SD)” value [17] was 1.04 (1.410). The “Change from Baseline … Difference from Placebo” value [18] was 0.09, the “Change from Baseline … (SE)” value [18] was 1.08 (0.072) and the “Change from Baseline … (SD)” value [18] was 1.04 (1.414). The “Change from Baseline … Difference from Placebo” value [19] was 0.07, the “Change from Baseline … (SE)” value [19] was 1.06 (0.072) and the “Change from Baseline … (SD)” value [19] was 1.04 (1.393). The “Change from Baseline … Difference from Placebo” value [20] was 0.06, the “Change from Baseline … (SE)” value [20] was 1.07 (0.074) and the “Change from Baseline … (SD)” value [20] was 1.06 (1.354). The “Change from Baseline … Difference from Placebo” value (6 mg, Post-Treatment Week 14, ITT Population-Excluding Duplicate Patients) was 0.06.
